Results as given in patent US9139548B2, “Polycyclic derivatives, preparation process and pharmaceutical use thereof” (Jiangsu Hengrui Medicine Co., Ltd., priority 2012, dated 2015).
pEC50: −log10 of the molar value.

Experiments:
GPR40 = target: T1, GPR40 (Homo sapiens, UniProt O14842); experiment: Agonist activity on CHO-K1/GPR40 cell (Fluo-4 calcium fluorescence); assay type: cell-based; details: CHO-K1 cell line expressing GPR40, calcium ion fluorescence
T1 construct: host or cells: CHO-K1 (Cell bank of the Chinese Academy of Sciences, GNHa 7), retrovirus infection
T1 sequence (O14842 whole entry): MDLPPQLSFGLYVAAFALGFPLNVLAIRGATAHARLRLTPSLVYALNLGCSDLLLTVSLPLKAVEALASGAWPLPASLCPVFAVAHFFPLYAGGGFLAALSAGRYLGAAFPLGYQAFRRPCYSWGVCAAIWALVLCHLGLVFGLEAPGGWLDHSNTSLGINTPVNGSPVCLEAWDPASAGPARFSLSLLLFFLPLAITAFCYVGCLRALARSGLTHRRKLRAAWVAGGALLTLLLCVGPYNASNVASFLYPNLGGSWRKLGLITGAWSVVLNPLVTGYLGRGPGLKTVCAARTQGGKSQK
Description: Agonist activity of compounds of the present disclosure on CHO-K1/GPR40 cell.
The following method was used to determine the agonist activity of compounds of the present disclosure on GPR40. The experiment process is described as follows:
CHO-K1/GPR40 cell (CHO-K1 cell line expressing GPR40, which was constructed using retrovirus infection method, CHO-K1/GPR40 cell for short, wherein CHO-K1 cell was purchased from Cell bank of the Chinese Academy of Sciences, catalogue number GNHa 7; GPR40 cDNA was purchased from Guangzhou FulenGen Co., Ltd, catalogue number EX-UO270-MO2) was inoculated in a 96-well plate with an inoculation density of 25000 cells/well. The cell plate was incubated at 37° C. and 5% CO2 for 24 hours. The cell culture fluid was discarded during the experiment, the cells were washed with buffer solution (1×HBSS+20 mM HEPES pH 7.4) once, 100 μL of Fluo-4 calcium ion dye was quickly added into each well, incubated at 37° C. in the dark for 30 minutes, and then at room temperature for another 30 minutes. During the determination, the baseline value of each well was read at first, and then different concentrations of drug were added to the wells (50 μL/well), and the fluorescence values were then read. The fluorescence excitation wavelength was 494 nm and the emission wavelength was 516 nm. The increase of fluorescence intensity was proportional to calcium ion level in the cells. Cell response rate of each cell/(The maximum fluorescence value−The minimum fluorescence value)/The minimum fluorescence value. EC50 values of the compounds were calculated

[1] = tested on: ICR mice fed on a high fat diet; experiment: Oral glucose tolerance test (OGTT) in glucose load mice fed on a high fat diet; assay type: in vivo; details: blood glucose AUC, high fat diet ICR male mice
Description: ICR mice fed on a high fat diet were used as test animals. The effect of oral administration of a single dose of the compounds of the present disclosure on oral glucose tolerance test (OGTT) of glucose load mice was studied.
Compounds of Example 1, Example 2, Example 13, Example 16, Example 18, Example 19 and Example 26
Healthy ICR male mice were purchased from SINO-BRITSH SIPPR/BK LAB. ANIMAL LTD., CO, License number: SCXK (Shanghai) 2008-0016
The test compounds were added to aqueous 0.5% CMC-Na solution to prepare the corresponding concentration suspension using microwave.
After an overnight fast for 16 hours, male mice fed on a high fat diet were weighed, and the basic blood glucose was determined. The mice were randomly divided into a Blank group and the group of each test compound of the present disclosure according to the level of blood glucose.
The dosage of administration was 20 mg/kg or 40 mg/kg, and the Blank group was administered aqueous 0.5 CMC-Na solution.
20% Glucose solution was administered 15 minutes after intragastrical administration (each mouse was administered 0.4 mL)
The compounds were administered according to the aforesaid dosage to determine the blood glucose value (−15 minutes).
At 15 minutes after administration, 20% glucose solution was administrated at a dose of 2 g/kg and the blood glucose values at 0, 15, 30, 45, 60 and 120 minutes in each mouse were determined by Roche Accu-Chek blood glucose monitoring meter.
Using Excel statistical software: the average value was calculated with avg; SD value was calculated with STDEV; and P value of difference among groups was calculated with TTEST. • AUC calculation formula: AUC=(t15min+t0min)×0.25/2+(t30min+t15min)×0.25/2+(t45min+t30min)×0.25/2+(t60min+t45min)×0.25/2+(t120min+t60min)×1/2 • Wherein t0min, t15min, t30min, t45min, t60min, t120min were blood glucose values determined at different time points.

For `Cc1cc(O[C@@H]2CCC[C@H]2O)cc(C)c1-c1cccc(COc2ccc3c(c2)OC[C@H]3CC(=O)O)c1` (mixture of isomers) [Example 17, 2-((S)-6-((4′-(((1R,2R)/(1S,2S)-2-Hydroxycyclopentyl)oxy)-2′,6′-dimethylbiphenyl-3-yl)methoxy)-2,3-dihydrobenzofuran-3-yl)acetic acid], the pEC50 (GPR40) was 6.80.

`Cc1cc(O[C@H]2CCOC2)cc(C)c1-c1cccc(COc2ccc3c(c2)OC[C@H]3CC(=O)O)c1C` [Example 12, 2-((S)-6-((2,2′,6′-Trimethyl-4′-(((S)-tetrahydrofuran-3-yl)oxy)biphenyl-3-yl)methoxy)-2,3-dihydrobenzofuran-3-yl)acetic acid] was tested, and the pEC50 (GPR40) was 6.95.

Work on `Cc1cc(OC2CN(C(=O)[C@H](C)O)C2)cc(C)c1-c1cccc(COc2ccc3c(c2)OC[C@H]3CC(=O)O)c1` [Example 20, 2-((S)-6-((4′-((1-((S)-2-hydroxypropanoyl)azetidin-3-yl)oxy)-2′,6′-dimethylbiphenyl-3-yl)methoxy)-2,3-dihydrobenzofuran-3-yl)acetic acid] yielded a pEC50 (GPR40) of 6.85.

`Cc1cc(O[C@@H]2CCOC2)c(F)c(C)c1-c1cccc(COc2ccc3c(c2)OC[C@H]3CC(=O)O)c1` [Example 28, 2-((S)-6-((3′-fluoro-2′,6′-dimethyl-4′-(((R)-tetrahydrofuran-3-yl)oxy)biphenyl-3-yl)methoxy)-2,3-dihydrobenzofuran-3-yl)acetic acid] was tested, and the pEC50 (GPR40) was 7.09.

`Cc1cc(OC2CCN(C(=O)[C@H](C)O)CC2)cc(C)c1-c1cccc(COc2ccc3c(c2)OC[C@H]3CC(=O)O)c1` [Example 22, 2-((S)-6-((4′-((1-((S)-2-hydroxypropanoyl)piperidin-4-yl)oxy)-2′,6′-dimethylbiphenyl-3-yl)methoxy)-2,3-dihydrobenzofuran-3-yl)acetic acid] gave a pEC50 (GPR40) of 7.11.

In the case of `Cc1cc(OC2CNC2)cc(C)c1-c1cccc(COc2ccc3c(c2)OC[C@H]3CC(=O)O)c1` [Example 16, (S)-2-(6-((4′-(Azetidin-3-yloxy)-2′,6′-dimethylbiphenyl-3-yl)methoxy)-2,3-dihydrobenzofuran-3-yl)acetic acid], the pEC50 (GPR40) was 7.82 and the “AUC decrease rate %” value ([1]; single oral dose 40 mg/kg) was 15.72%.

Work on `Cc1ccc(-c2c(C)cc(O[C@H]3CCOC3)cc2C)cc1COc1ccc2c(c1)OC[C@H]2CC(=O)O` [Example 27, 2-((S)-6-((2′,4,6′-trimethyl-4′-(((S)-tetrahydrofuran-3-yl)oxy)biphenyl-3-yl)methoxy)-2,3-dihydrobenzofuran-3-yl)acetic acid] yielded a pEC50 (GPR40) of 7.28.

`Cc1cc(O[C@@H]2CCOC2)cc(C)c1-c1cccc(COc2ccc3c(c2)OC[C@@H]3CC(=O)O)c1` [Example 33, 2-((R)-6-((2′,6′-dimethyl-4′-(((R)-tetrahydrofuran-3-yl)oxy)biphenyl-3-yl)methoxy)-2,3-dihydrobenzofuran-3-yl)acetic acid] gave a pEC50 (GPR40) of 6.95.

For `Cc1cc(O[C@@H]2CCN(S(C)(=O)=O)C2)cc(C)c1-c1cccc(COc2ccc3c(c2)OC[C@H]3CC(=O)O)c1` [Example 11, 2-((S)-6-((2′,6′-Dimethyl-4′-(((R)-1-(methylsulfonyl)pyrrolidin-3-yl)oxy)biphenyl-3-yl)methoxy)-2,3-dihydrobenzofuran-3-yl)acetic acid], the pEC50 (GPR40) was 7.14.

In the case of `Cc1cc(O[C@H]2CCN(S(C)(=O)=O)C2)cc(C)c1-c1cccc(COc2ccc3c(c2)OC[C@H]3CC(=O)O)c1` [Example 8, 2-((S)-6-((2′,6′-Dimethyl-4′-(((S)-1-(methylsulfonyl)pyrrolidin-3-yl)oxy)biphenyl-3-yl)methoxy)-2,3-dihydrobenzofuran-3-yl)acetic acid], the pEC50 (GPR40) was 7.06.

`Cc1cc(OC2CCCC2)cc(C)c1-c1cccc(COc2ccc3c(c2)OC[C@H]3CC(=O)O)c1` [Example 10, (S)-2-(6-((4′-(Cyclopentyloxy)-2′,6′-dimethylbiphenyl-3-yl)methoxy)-2,3-dihydrobenzofuran-3-yl)acetic acid] was tested, and the pEC50 (GPR40) was 6.87.

`Cc1cc(OC2CN(C(=O)CO)C2)cc(C)c1-c1cccc(COc2ccc3c(c2)OC[C@H]3CC(=O)O)c1` [Example 21, (S)-2-(6-((4′-((1-(2-hydroxyacetyl)azetidin-3-yl)oxy)-2′,6′-dimethylbiphenyl-3-yl)methoxy)-2,3-dihydrobenzofuran-3-yl)acetic acid] was tested, and the pEC50 (GPR40) was 6.88.

In the case of `Cc1cc(O[C@H]2CCOC2)cc(C)c1-c1cccc(COc2ccc3c(c2)OC[C@@H]3CC(=O)O)c1` [Example 34, 2-((R)-6-((2′,6′-dimethyl-4′-(((S)-tetrahydrofuran-3-yl)oxy)biphenyl-3-yl)methoxy)-2,3-dihydrobenzofuran-3-yl)acetic acid], the pEC50 (GPR40) was 6.95.

In the case of `Cc1cc(O[C@H]2COC[C@@H]2O)cc(C)c1-c1cccc(COc2ccc3c(c2)OC[C@H]3CC(=O)O)c1` [Example 29, 2-((S)-6-((4′-(((3S,4S)-4-hydroxytetrahydrofuran-3-yl)oxy)-2′,6′-dimethylbiphenyl-3-yl)methoxy)-2,3-dihydrobenzofuran-3-yl)acetic acid], the pEC50 (GPR40) was 7.39 and the “AUC decrease rate %” value ([1]; single oral dose 20 mg/kg) was 20.41%.

`Cc1cc(OC2CCNCC2)cc(C)c1-c1cccc(COc2ccc3c(c2)OC[C@H]3CC(=O)O)c1` [Example 4, (S)-2-(6-((2′,6′-Dimethyl-4′-(piperidin-4-yloxy)biphenyl-3-yl)methoxy)-2,3-dihydrobenzofuran-3-yl)acetic acid] showed a pEC50 (GPR40) of 7.09.

`Cc1cc(O[C@@H]2CC[C@H](O)[C@@H]2O)cc(C)c1-c1cccc(COc2ccc3c(c2)OC[C@H]3CC(=O)O)c1` [Example 25, 2-((S)-6-((4′-(((1R,2S,3S)-2,3-dihydroxycyclopentyl)oxy)-2′,6′-dimethylbiphenyl-3-yl)methoxy)-2,3-dihydrobenzofuran-3-yl)acetic acid] gave a pEC50 (GPR40) of 7.51.

With `Cc1cc(O[C@@H]2CCOC2)cc(C)c1-c1ccc(F)c(COc2ccc3c(c2)OC[C@H]3CC(=O)O)c1` [Example 26, 2-((S)-6-((4-fluoro-2′,6′-dimethyl-4′-(((R)-tetrahydrofuran-3-yl)oxy)biphenyl-3-yl)methoxy)-2,3-dihydrobenzofuran-3-yl)acetic acid] the pEC50 (GPR40) was 7.28 and the “AUC decrease rate %” value ([1]; single oral dose 40 mg/kg) was 26.06%.

Work on `COC(=O)N1CCC(Oc2cc(C)c(-c3cccc(COc4ccc5c(c4)OC[C@H]5CC(=O)O)c3)c(C)c2)CC1` [Example 23, (S)-2-(6-((4′-((1-(methoxycarbonyl)piperidin-4-yl)oxy)-2′,6′-dimethylbiphenyl-3-yl)methoxy)-2,3-dihydrobenzofuran-3-yl)acetic acid] yielded a pEC50 (GPR40) of 6.85.

`Cc1cc(OC2CCN(S(C)(=O)=O)CC2)cc(C)c1-c1cccc(COc2ccc3c(c2)OC[C@H]3CC(=O)O)c1` [Example 5, (S)-2-(6-((2′,6′-Dimethyl-4′-((1-(methylsulfonyl)piperidin-4-yl)oxy)biphenyl-3-yl)methoxy)-2,3-dihydrobenzofuran-3-yl)acetic acid] was tested, and the pEC50 (GPR40) was 6.97.

For `Cc1cc(O[C@H]2CCOC2)c(F)c(C)c1-c1cccc(COc2ccc3c(c2)OC[C@H]3CC(=O)O)c1` [Example 19, 2-((S)-6-((3′-Fluoro-2′,6′-dimethyl-4′-(((S)-tetrahydrofuran-3-yl)oxy)biphenyl-3-yl)methoxy)-2,3-dihydrobenzofuran-3-yl)acetic acid], the pEC50 (GPR40) was 7.26 and the “AUC decrease rate %” value ([1]; single oral dose 40 mg/kg) was 36.78%.

For `Cc1cc(O[C@H]2CCOC2)cc(C)c1-c1ccc(F)c(COc2ccc3c(c2)OC[C@H]3CC(=O)O)c1` [Example 18, 2-((S)-6-((4-Fluoro-2′,6′-dimethyl-4′-(((S)-tetrahydrofuran-3-yl)oxy)biphenyl-3-yl)methoxy)-2,3-dihydrobenzofuran-3-yl)acetic acid], the pEC50 (GPR40) was 7.55 and the “AUC decrease rate %” value ([1]; single oral dose 40 mg/kg) was 44.13%.
